{
  "source": "patent US20100168228A1",
  "about": "“NOVEL CHEMOTHERAPEUTIC AGENTS AGAINST INFLAMMATION AND CANCER” (RELIANCE LIFE SCIENCES PVT. LTD., priority 2006, published 2010)",
  "assay_type_in_all_cases": "cell-based, human",
  "key": {"[1]": {"test_system": "NF-κB", "experiment": "NF-κB activation assay (Transfactor ELISA on nuclear extracts), Jurkat", "conditions": "pretreated 3 h", "method": "Cell pellet was resuspended in lysis buffer (10 mM HEPES, pH 7.9, 1.5 mM MgCl2, 10 mM KCl, 1 mM PMSF, 1 mMDTT, 0.5% NP 40, 0.1 mM EGTA and 0.1 mM EDTA) and allowed to swell on ice for 15 min, followed by centrifugation at 3300×g for 20 min. The cell pellet was resuspended in a volume of lysis buffer equal to the cell pellet volume. The cell suspension was slowly drawn down into a syringe and ejected the content in a single stroke. Disrupted cells were incubated for 15 min on ice, and the disrupted cell suspension was centrifuged at 10,000×g for 20 min at 4° C. Nuclear pellet was resuspended in a volume of extraction buffer (20 mM HEPES; pH 7.9, 25% glycerol, 1.5 mM MgCl2, 420 mM NaCl, 0.1 mM EDTA, 0.1 mM EGTA, 1 mM PMSF and 1 mM DTT) and incubated on ice for 30 min. The nuclear suspension was centrifuged at 21,000×g for 15 min at 4° C. and the supernatant was collected as nuclear extract and stored at −70° C. Protein concentration was estimated using standard Bradford method.\nTo determine NF-κB activation, transcription profiling was done with the BD Mercury Transfactor kit obtained from BD Biosciences. This method provides rapid, high-throughput detection of specific transcription factors eg NFκB in the nuclear extract. Using an enzyme-linked immunosorbent assay (ELISA)-based format, the Transcription Factor kit detects the DNA binding by specific transcription factors.\nThe assay was performed by using wells coated with oligonucleotides having the consensus DNA binding sites for the specific transcription factors. 50 μg of the nuclear extract proteins were incubated in the wells precoated with their specific oligonucletides, and allowed the activated NFκB to bind to their consensus sequence. Bound transcription factor was detected by a specific Primary Antibody. A horseradish peroxidase conjugated Secondary Antibody was then used to detect the bound Primary Antibody. After addition of the substrate, the Absorbance was recorded at 655 nm. […]"}, "[2]": {"test_system": "caspase 3", "experiment": "Caspase 3 activity assay, Jurkat lysates", "conditions": "16 and 24 h exposure", "method": "FIG. 14: Induction of Caspase 3 by compound 27. Jurkat cells were treated with indicated concentrations of the compound for 16 and 24 h and harvested in lysis buffer. Cellular lysates were incubated with Ac-DEVD-pNA as described in the “Materials and Methods” for 2 h at 37° C. Absorbance was recorded at 405 nm.\nCaspase 3 activity assay: To evaluate caspase 3 activity, cell lysates were prepared after their respective treatments with the compounds. 200 μg of the cell lysates were incubated with 50 μM caspase 3 substrate […] in 100 μl reaction buffer (1% NP-40, […] tris-HCl, pH7.5, 137 mM NaCl, and 10% glycerol) and incubated for 2 h at 37° C. The release of chromophore pNA was monitored spectrophotometrically at 405 nm."}, "[3]": {"test_system": "p53", "experiment": "p53 mRNA, semi-quantitative RT-PCR, Jurkat", "conditions": "various doses, 12 h", "method": "(§1) RNA extraction: Total RNA was isolated using the standard TRIzol method (Gibco BRL). Briefly, 3×10^6 cells were treated with different concentrations of the compounds as indicated in the legends to Figures and after harvesting the cell pellet was resuspended in 1 ml of TRIzol with repeated pipetting. The homogenized sample was incubated at RT for 5 min to permit complete dissociation of the nucleoprotein complexes. […] of chloroform was added and the tubes were shaken vigorously for 15 sec by hand and then incubated at RT for 3 mins. The samples were then centrifuged at 10,000 RPM for 15 mins at 4° C. The aqueous phase was transferred to a fresh tube and 500 μl of Isopropyl alcohol was added, followed by incubation at RT for 10 mins. The samples were centrifuged at 10,000 RPM for 10 min at 4° C. and the RNA pellet was washed with 1 ml of 75% ethanol followed by centrifugation at maximum speed at 4° C. for 10 mins. Washing was repeated once more and after removing the supernatant, the RNA pellet was dried and dissolved in 20 ul of RNase free water (Promega). […]\n(§2) Semi-quantitative reverse transcriptase (RT)-PCR: Changes in gene expression were verified by semi-quantitative RT-PCR using GAPDH as an internal normalization standard. 1 μg of total RNA (quantified by spectrophotometer) was used to reverse transcribe into cDNA. […]"}, "[4]": {"test_system": "bax", "experiment": "bax mRNA, semi-quantitative RT-PCR, Jurkat", "conditions": "increasing concentrations", "method": "FIG. 18: Effects of compound 27 on p53, Bax, bcl-2 mRNA levels in Jurkat cells. Expression of human p53, bax-α, bcl-2, was assayed by semi quantitative RT-PCR analysis with GAPDH as internal control. Cells were treated for 24 h with various doses of the compound (0, 50, 100 and 500 nM), then total RNA was extracted and submitted to RT-PCR.\nas §1, with “mins.” for “mins. The samples were centrifuged at 10,000 RPM for 10 min at 4° C. and the RNA pellet was washed with 1 ml of 75% ethanol followed by centrifugation at maximum speed at 4° C. for 10 mins. Washing was repeated once more and after removing the supernatant, the RNA pellet was dried and dissolved in 20 ul of RNase free water (Promega).”\nas §2"}},
  "data": [
    {"smiles": "COC(=O)c1ccc(OC(=O)/C=C/c2ccc(O)c(O)c2)c(OC)c1", "note": "[compound 1, Methyl 4-{[(2E)-3-(3,4-dihydroxyphenyl)prop-2-enoyl]oxy}-3-methoxybenzoate]", "values": [
      {"measurement": "TNF induced NF-κB activation", "setting": "[1]; 0.1 nM TNF 30 min", "value": "inhibited this activation in a concentration dependent manner"},
      {"measurement": "concentration of maximum inhibition of TNF induced NF-κB activation", "setting": "[1]; 0.1 nM TNF 30 min", "value": 15, "unit": "µM"},
      {"measurement": "LPS induced NF-κB activation", "setting": "[1]; 100 ng/ml SA-LPS 30 min", "value": "blocked by CAMVE"}
    ]},
    {"smiles": "COc1cc([C@@H]2Oc3c(OC)cc(/C=C/C(=O)O)cc3[C@H]2C(=O)O)ccc1O", "note": "[compound 27, 5-[(E)-2-carboxyvinyl]-2β-(4-hydroxy-3-methoxyphenyl)-7-methoxy-2,3-dihydro-1-benzofuran-3α-carboxylic acid]", "values": [
      {"measurement": "caspase 3 activity (DVED-pNA cleavage)", "setting": "[2]", "value": "dose dependent increase in DVED-pNA cleavage"},
      {"measurement": "p53 mRNA level", "setting": "[3]", "value": "only slight increase in p53 mRNA level"},
      {"measurement": "pro-apoptotic bax mRNA levels", "setting": "[4]", "value": "increased the pro-apoptotic bax mRNA levels"}
    ]}
  ]
}
